What was measured:
Assay type in all cases: cell-based, Escherichia coli
[1] = system: E. coli clinical strain 7704; assay: cAST platform antimicrobial susceptibility testing (resazurin, capillary format)
Experimental: (§1) The disclosure includes use of steel capillary tubes of size 50 mm×1.59 mm×0.76 mm (L×O.D.×I.D.) to hold the samples. Alternatively, glass capillary tubes (Drummond Scientific) of similar size can also be used. However, in the case of glass, the ends of the tubes are coated with paint or a similar substance to prevent excess light from the LEDs leaking into the fiber-optic detector. During sample loading, 4 μL liquid culture droplets were individually pipetted onto a clean substrate and then loaded into the tubes via capillary action. The capillary tubes used as conduits were sterilized prior to loading through autoclaving. Following loading, tubes were inserted into the sample holder in a configuration that allows light from the LEDs to pass through the sample and into the fiber-optic detector. Since the volume capacity of the capillary tubes was higher than the sample volume of 4 μL, the tubes were loaded with the fluid-filled side near the light-source as this configuration was determined to yield higher signal-to-noise ratios. This approach to sample loading is encompassed by the disclosure. During AST, the cAST platform was placed inside a benchtop incubator (Corning) set to 37° C. in ambient air. A small portable humidifier was also placed inside the incubator (80-85% relative humidity) to minimize sample drying during incubation. Thus, in embodiments, a system of the disclosure may include a humidifying device or composition to act as […]. Every 30 min, spectral intensity measurements were automatically taken for each sample and data were transferred and stored on a computer for processing using OceanView (Ocean Optics).
(§2) The cAST platform was initially used to test five different quality control (QC) strains: Escherichia coli ATCC 25922, Enterobacter cloacae ATCC 13047, Acinetobacter baumannii ATCC BAA-747, Pseudomonas aeruginosa ATCC 27853, and Escherichia coli K12 ER2267 (kanamycin resistant). To prepare inocula for AST, strains were first streaked on Mueller-Hinton II agar plates (Becton, Dickinson and Company) and incubated overnight at 37° C. in ambient air. For the kanamycin resistant E. coli K12 strain, the agar was supplemented with kanamycin (MilliporeSigma) at a final concentration of 50 μg/mL. Liquid cultures were then prepared by inoculating single colonies into CAMHB, followed by overnight incubation at 37° C. in ambient air. […] Using a spectrophotometer (V-1200, VWR), the OD625nm absorbance corresponding to a 0.5 McFarland standard was verified to be in the range of 0.08-0.13^21. […] Resazurin is a redox indicator that is reduced by metabolically active cells into resorufin, leading to significant colorimetric and fluorescent changes in the culture media which can be measured to gauge bacterial growth^20. […]

[2] = system: E. coli clinical strain 7426; assay: as above
Experimental: as §1, §2

[3] = system: E. coli clinical strain 7704; assay: clinical gradient diffusion (E-test, bioMérieux); settings: gradient diffusion overnight
Experimental: (§3) Following testing of the QC strains, the cAST platform was used to test two E. coli clinical isolates. Following the same protocol used to test the QC strains, the clinical isolates were tested with ten two-fold dilution gentamicin concentrations spanning 0.5 μg/mL to 256 μg/mL. Testing was conducted blind and results were subsequently compared with clinical results generated using gradient diffusion (E-test, bioMérieux).

[4] = system: E. coli clinical strain 7426; assay: clinical gradient diffusion (E-test, bioMérieux); settings: gradient diffusion overnight
Experimental: as §3

[5] = cAST in categorical agreement with gradient diffusion

## gentamicin
[1]; cAST at 6 h
  predicted MIC: 1 µg/mL
[1]; [5]
  susceptibility category: susceptible (susceptible (≤4 μg/mL))
[2]; cAST at 6 h
  predicted MIC: 128 µg/mL
[2]; [5]
  susceptibility category: resistant (resistant (≥16 μg/mL))
[3]
  MIC: 1.5 µg/mL
[4]
  MIC: ≥ 256 µg/mL

Source: patent publication US12391972B2, “Capillary-based system for accelerated antimicrobial susceptibility testing” (Cornell University, priority 2019, dated 2025)
